Earlier results, collected in US10307432B2, “Stabilized liquid fosaprepitant formulations” (Cipla Limited, priority 2015, dated 2019).

What was measured:
[1] = system: serotonin, dopamine or corticosteroid receptors
[2] = after an IV infusion

C[C@@H](O[C@H]1OCCN(Cc2n[nH]c(=O)[nH]2)[C@H]1c1ccc(F)cc1)c1cc(C(F)(F)F)cc(C(F)(F)F)c1 [Aprepitant]
affinity for serotonin, dopamine or corticosteroid receptors [1]: little or no affinity

C[C@@H](O[C@H]1OCCN(Cc2nc(O)n(P(=O)(O)O)n2)[C@H]1c1ccc(F)cc1)c1cc(C(F)(F)F)cc(C(F)(F)F)c1 [Fosaprepitant]
time of conversion to aprepitant [2]: less than 30 minutes
